Experimental data: patent US7041466B2, “Mouse disease model for evaluation of prophylactic and therapeutic treatments of Chlamydia” (priority 2002, dated 2006)
Entries after “also recorded” stand apart in the source; their conditions may differ. Read-outs that look alike come from different tables or passages of the source.

Assays:
[1] = test system: C. psittaci; conditions: mouse, in vivo
[2] = test system: IL-12p70, IFN-γ, NOS2, arginase I, arginase II in lung tissue; conditions: mouse, in vivo, 6 mg/kg
[3] = test system: splenic CD4+ T cells; conditions: mouse, in vivo, 6 mg/kg/day
[4] = test system: NO production; conditions: mouse, in vivo
[5] = test system: C. psittaci strain B577; conditions: mouse, in vivo
[6] = test system: C. pneumoniae; conditions: mouse, in vivo

For `N=C(N)NN` [AG, aminoguanidine], the “reduction of chlamydial lung burden” value [1] was “more than 10 fold”, the “chlamydial burden on day 7 after secondary infection” value ([1]; 100 mg/kg) was “substantially, but not significantly, higher” and the “disease (interstitial pneumonia) on day 7 after secondary infection” value ([1]; 100 mg/kg) was “completely abolished disease; also recorded: completely abolished the development of interstitial pneumonia”. For the same compound, the “disease on day 7 after secondary infection” value ([1]; 100 mg/kg) was “marginally increased”, the “NOS2, arginase I and arginase II transcript levels on days 4 and 12” value [2] was “resembled those of BALB/c mice” and the “day-4 pulmonary IFN-γ transcripts” value [2] was “significant increase”. The “day-4 pulmonary concentration of IL-12 p70” value [2] was “significant increase”, the “CD4+ splenocytes, day 4” value [3] was 28.0±0.55% and the day-4 serum nitrite/nitrate ([4]; 6 mg/kg/day) was 73.2 ± 3.8 µM. The day-4 serum nitrite/nitrate ([4]; 200 mg/kg/day) was 39.7 ± 2.9 µM, the “serum nitrite/nitrate (NO production), change in words” value ([4]; ip) was “significantly reduced; also recorded: reduced NO production of infected C57BL/6 mice in a dose-dependent manner” and the “chlamydial lung burden on day 7” value [5] was “higher chlamydial burdens”. For the same compound, the “day-12 chlamydial lung burden” value [5] was “greatly reduced”, the day-12 disease [5] was “did not show significant changes” and the “day-12 disease (lung weight increase)” value [5] was “developed severe day-12 disease”. The “day-12 disease phenotype (lung weight increase)” value [5] was “completely reversed the severe day-12 disease phenotype; also recorded: completely protected; also recorded: protected from disease”, the “disease outcomes and numbers of chlamydiae in lung tissue” value [5] was “did not change disease outcomes” and the “elimination of chlamydiae from lungs after day 7” value [5] was “significantly more rapidly”. For the same compound, the “chlamydial lung loads after secondary infection” value [6] was “reduced chlamydial lung loads”, the “gross lung disease after secondary infection” value [6] was “free of gross lung disease” and the “interstitial pneumonia on day 7 after secondary infection” value [6] was “completely abolished the development of interstitial pneumonia”.
For `CCC[C@H](N)C(=O)O` [L-norvaline], the day-4 serum nitrite/nitrate [4] was 123.22 ± 38.8 µM, the “serum nitrite/nitrate (NO production), change in words” value [4] was “significantly increased; also recorded: produced more NO” and the “chlamydial lung disease (lung weight increase), change in words” value [5] was “significantly increased; also recorded: partially reverted to a disease phenotype”. The “chlamydial lung disease, change in words” value [5] was “did not change the disease”.
